This is an account of results in patent publication US20230365592A1 (Agios Pharmaceuticals, Inc., priority 2022, published 2023).

Usually AC50 stands for the concentration at which the activity in the assay is half-maximal.

The first experiment addresses T1, human PAH with the R408W mutation (Homo sapiens, UniProt P00439, R408W).
T1 construct: expressed in transfected cells
T1 sequence (P00439 1-452 R408W): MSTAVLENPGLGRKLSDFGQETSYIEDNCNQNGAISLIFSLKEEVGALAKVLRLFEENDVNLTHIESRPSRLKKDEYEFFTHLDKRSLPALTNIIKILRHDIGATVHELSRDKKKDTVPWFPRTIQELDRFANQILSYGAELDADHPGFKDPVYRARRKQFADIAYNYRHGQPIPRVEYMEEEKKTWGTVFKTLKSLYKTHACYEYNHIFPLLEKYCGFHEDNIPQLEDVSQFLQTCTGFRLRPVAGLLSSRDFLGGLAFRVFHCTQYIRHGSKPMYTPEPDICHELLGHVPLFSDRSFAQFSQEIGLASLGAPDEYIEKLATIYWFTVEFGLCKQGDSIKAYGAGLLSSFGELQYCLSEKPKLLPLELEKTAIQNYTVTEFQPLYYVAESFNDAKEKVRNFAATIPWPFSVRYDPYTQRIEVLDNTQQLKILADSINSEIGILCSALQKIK
Nature of the experiment: Cell Based Phenylalanine Flux Assay.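 Further: after compound treatment, cells received sepiapterin plus isotope-labelled Phenylalanine for 4 hours, then labelled Tyrosine in the medium was quantified, 10-point 2-fold dilution series run in duplicate.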 The conditions noted are these: A375 cells expressing R408W PAH; 24 hrs with compound, then 20 µM sepiapterin and 800 µM 13C9,15N-Phenylalanine for 4 hours; 13C-Tyrosine by LC-MS; average where tested multiple times; read-out: AC50.
With `CC(C)(C)c1nnc(C(=O)N2CCc3[nH]cnc3C2c2cc3ccc(C(F)(F)F)cn3n2)o1` (stereo not drawn), the concentration at half-maximal activity (AC50) was in the range of 1000 to 5000 nM.
As to `CC(C)(C)c1nnc(N2CCc3[nH]cnc3C2c2cc3ccccn3n2)o1` (stereo not drawn), the half-maximal activity concentration (AC50) lay in the range of 1000 to 5000 nM.
On the same count and under the same terms, the result for `Cc1cccn2nc(C3c4nc[nH]c4CCN3C(=O)c3nnc(N4CCN(C)CC4)o3)cc12` (stereo not drawn) reads 1000 to 5000 nM; that for `Cc1nc(C(C)O)oc1C(=O)N1CCc2[nH]cnc2C1c1cc2ccccn2n1` (stereo not drawn), 1000 to 5000 nM; that for `c1ccn2nc([C@H]3NCCc4ncn(-c5nnc(C6CC6)o5)c43)cc2c1` (single isomer, unassigned), 1000 to 5000 nM.

Still in this experiment, the particulars now being: A375 cells expressing human PAH R408W; 24 hrs compound incubation; 13C-Tyrosine by LC-MS; average where tested multiple times; read-out: AC50.
As to `Cc1cccn2nc([C@@H]3c4nc[nH]c4CCN3c3ncc(N)cn3)cc12` [Example 1827, (S)-2-(4-(4-methylpyrazolo[1,5-a]pyridin-2-yl)-6,7-dihydro-1H-imidazo[4,5-c]pyridin-5(4H)-yl)pyrimidin-5-amine], the AC50 is 500 to 1000 nM.

Still in this experiment, the particulars now being: A375 cells expressing human R408W PAH; 24 hrs compound incubation; 13C-Tyrosine by LC-MS; average where tested multiple times; read-out: AC50.
For `O=C(c1nnc(-c2cnn(C(F)F)c2)o1)N1CCc2[nH]cnc2[C@@H]1c1cc2cccc(C(F)F)n2n1` [Example 1441, (R)-(5-(1-(difluoromethyl)-1H-pyrazol-4-yl)-1,3,4-oxadiazol-2-yl)(4-(7-(difluoromethyl)pyrazolo[1,5-a]pyridin-2-yl)-6,7-dihydro-1H-imidazo[4,5-c]pyridin-5(4H)-yl)methanone], the half-maximal activity concentration (AC50) is > 5000 nM.
Same read-out and setting: then `CC(C)(C)c1nnc(C(=O)N2CCc3[nH]cnc3[C@@H]2c2cc3cccc(C(F)F)n3n2)o1` [Example 1418, (R)-(5-(tert-butyl)-1,3,4-oxadiazol-2-yl)(4-(7-(difluoromethyl)pyrazolo[1,5-a]pyridin-2-yl)-6,7-dihydro-1H-imidazo[4,5-c]pyridin-5(4H)-yl)methanone], with 1000 to 5000 nM.
As to `Cc1cccc2cc([C@@H]3c4nc[nH]c4CCN3C(=O)c3cnn4cc(CN(C)C)ccc34)nn12` [Example 1690, (S)-(6-((dimethylamino)methyl)pyrazolo[1,5-a]pyridin-3-yl)(4-(7-methylpyrazolo[1,5-a]pyridin-2-yl)-6,7-dihydro-1H-imidazo[4,5-c]pyridin-5(4H)-yl)methanone], the half-maximal activity concentration (AC50) lay within 500 to 1000 nM.
Same read-out and setting: the result for `O=C(c1cnn2cc(C3CC3)ccc12)N1CCc2[nH]cnc2[C@H]1c1cc2c(F)cccn2n1` [Example 1672, (S)-(6-cyclopropylpyrazolo[1,5-a]pyridin-3-yl)(4-(4-fluoropyrazolo[1,5-a]pyridin-2-yl)-6,7-dihydro-1H-imidazo[4,5-c]pyridin-5(4H)-yl)methanone] reads < 500 nM; that for `Cn1cnc(-c2nc(C(F)F)c(C(=O)N3CCc4[nH]cnc4[C@H]3c3cc4c(F)cccn4n3)o2)c1` [Example 921, (S)-(4-(difluoromethyl)-2-(1-methyl-1H-imidazol-4-yl)oxazol-5-yl)(4-(4-fluoropyrazolo[1,5-a]pyridin-2-yl)-6,7-dihydro-1H-imidazo[4,5-c]pyridin-5(4H)-yl)methanone], < 500 nM.
For the molecule `Cn1cc(-c2nnc(C(=O)N3CCc4[nH]cnc4[C@H]3c3cc4c(Cl)cccn4n3)o2)cn1` [Example 688, (S)-(4-(4-chloropyrazolo[1,5-a]pyridin-2-yl)-6,7-dihydro-1H-imidazo[4,5-c]pyridin-5(4H)-yl)(5-(1-methyl-1H-pyrazol-4-yl)-1,3,4-oxadiazol-2-yl)methanone], the AC50 is < 500 nM.
Take `O=C(c1nnc(-c2ccc(C(F)(F)F)cc2)o1)N1CCc2[nH]cnc2[C@H]1c1cc2ccccn2n1` [Example 642, (S)-(4-(pyrazolo[1,5-a]pyridin-2-yl)-6,7-dihydro-1H-imidazo[4,5-c]pyridin-5(4H)-yl)(5-(4-(trifluoromethyl)phenyl)-1,3,4-oxadiazol-2-yl)methanone]: the half-maximal activity concentration (AC50) was in the range of 500 to 1000 nM.
Consider `O=C(c1cnn2ccccc12)N1CCc2[nH]cnc2[C@@H]1c1cc2c(C(F)F)cccn2n1` [Example 1731, (R)-(4-(4-(difluoromethyl)pyrazolo[1,5-a]pyridin-2-yl)-6,7-dihydro-1H-imidazo[4,5-c]pyridin-5(4H)-yl)(pyrazolo[1,5-a]pyridin-3-yl)methanone], for which the AC50 is > 5000 nM.
The same measure, in the same setting: then `Cn1cncc1-c1nc(C(F)F)c(C(=O)N2CCc3[nH]cnc3[C@@H]2c2cc3c(F)cccn3n2)o1` [Example 888, (R)-(4-(difluoromethyl)-2-(1-methyl-1H-imidazol-5-yl)oxazol-5-yl)(4-(4-fluoropyrazolo[1,5-a]pyridin-2-yl)-6,7-dihydro-1H-imidazo[4,5-c]pyridin-5(4H)-yl)methanone], with > 5000 nM; and `Cn1cc(C(=O)N2CCc3[nH]cnc3[C@H]2c2cc3ccccn3n2)c(C(F)F)n1` [Example 662, (S)-(3-(difluoromethyl)-1-methyl-1H-pyrazol-4-yl)(4-(pyrazolo[1,5-a]pyridin-2-yl)-6,7-dihydro-1H-imidazo[4,5-c]pyridin-5(4H)-yl)methanone], with < 500 nM; and `O=C(c1nnc(-c2cnn(S(=O)(=O)C3CC3)c2)o1)N1CCc2[nH]cnc2[C@H]1c1cc2c(F)cccn2n1` [Example 834, (S)-(5-(1-(cyclopropylsulfonyl)-1H-pyrazol-4-yl)-1,3,4-oxadiazol-2-yl)(4-(4-fluoropyrazolo[1,5-a]pyridin-2-yl)-6,7-dihydro-1H-imidazo[4,5-c]pyridin-5(4H)-yl)methanone], with 500 to 1000 nM.
Still for that read-out and setting: the result for `O=C(c1nnc(C2CC2)o1)N1CCc2[nH]cnc2[C@H]1c1cc2c(OC(F)F)cccn2n1` [Example 1654, (S)-(5-cyclopropyl-1,3,4-oxadiazol-2-yl)(4-(4-(difluoromethoxy)pyrazolo[1,5-a]pyridin-2-yl)-6,7-dihydro-1H-imidazo[4,5-c]pyridin-5(4H)-yl)methanone] reads 500 to 1000 nM; that for `C[C@@H](O)c1nc(C(F)F)c(C(=O)N2CCc3[nH]cnc3[C@H]2c2cc3ccccn3n2)o1` [Example 690, (4-(difluoromethyl)-2-((R)-1-hydroxyethyl)oxazol-5-yl)((S)-4-(pyrazolo[1,5-a]pyridin-2-yl)-6,7-dihydro-1H-imidazo[4,5-c]pyridin-5(4H)-yl)methanone], < 500 nM.
Consider `Cn1ccc(-c2nnc(C(=O)N3CCc4[nH]cnc4[C@H]3c3cc4ccc(C(F)(F)F)cn4n3)o2)n1` [Example 1128, (S)-(5-(1-methyl-1H-pyrazol-3-yl)-1,3,4-oxadiazol-2-yl)(4-(6-(trifluoromethyl)pyrazolo[1,5-a]pyridin-2-yl)-6,7-dihydro-1H-imidazo[4,5-c]pyridin-5(4H)-yl)methanone], for which the AC50 lay within 500 to 1000 nM.
Consider `Cc1cccc2cc([C@@H]3c4nc[nH]c4CCN3C(=O)c3nnc(-c4cnn(C(F)F)c4)o3)nn12` [Example 914, (S)-(5-(1-(difluoromethyl)-1H-pyrazol-4-yl)-1,3,4-oxadiazol-2-yl)(4-(7-methylpyrazolo[1,5-a]pyridin-2-yl)-6,7-dihydro-1H-imidazo[4,5-c]pyridin-5(4H)-yl)methanone], for which the concentration at half-maximal activity (AC50) lay within 500 to 1000 nM.
Still for that read-out and setting: the result for `COc1cccn2nc([C@@H]3c4nc[nH]c4CCN3C(=O)c3nnc(-c4ccccn4)o3)cc12` [Example 779, (S)-(4-(4-methoxypyrazolo[1,5-a]pyridin-2-yl)-6,7-dihydro-1H-imidazo[4,5-c]pyridin-5(4H)-yl)(5-(pyridin-2-yl)-1,3,4-oxadiazol-2-yl)methanone] reads 500 to 1000 nM; that for `Cc1nnc(C(=O)N2CCc3[nH]cnc3[C@@H]2c2cc3c(C(F)(F)F)cccn3n2)o1` [Example 945, (R)-(5-methyl-1,3,4-oxadiazol-2-yl)(4-(4-(trifluoromethyl)pyrazolo[1,5-a]pyridin-2-yl)-6,7-dihydro-1H-imidazo[4,5-c]pyridin-5(4H)-yl)methanone], > 5000 nM; that for `O=C(c1nnc(-c2ccc(F)c(F)c2)o1)N1CCc2[nH]cnc2[C@@H]1c1cc2ccccn2n1` [Example 649, (R)-(5-(3,4-difluorophenyl)-1,3,4-oxadiazol-2-yl)(4-(pyrazolo[1,5-a]pyridin-2-yl)-6,7-dihydro-1H-imidazo[4,5-c]pyridin-5(4H)-yl)methanone], > 5000 nM.
The same measure, in the same setting: then `O=C(c1nnc(-c2ncccc2F)o1)N1CCc2[nH]cnc2[C@@H]1c1cc2cccc(C(F)(F)F)n2n1` [Example 1035, (R)-(5-(3-fluoropyridin-2-yl)-1,3,4-oxadiazol-2-yl)(4-(7-(trifluoromethyl)pyrazolo[1,5-a]pyridin-2-yl)-6,7-dihydro-1H-imidazo[4,5-c]pyridin-5(4H)-yl)methanone], with > 5000 nM; and `O=C(c1nnc(C2CC2)o1)N1CCc2[nH]cnc2[C@H]1c1cc2ccccn2n1` [Example 620, (S)-(5-cyclopropyl-1,3,4-oxadiazol-2-yl)(4-(pyrazolo[1,5-a]pyridin-2-yl)-6,7-dihydro-1H-imidazo[4,5-c]pyridin-5(4H)-yl)methanone], with 1000 to 5000 nM.
On the same count and under the same terms, the result for `Cn1nccc1C(=O)N1CCc2[nH]cnc2[C@H]1c1cc2ccccn2n1` [Example 660, (S)-(1-methyl-1H-pyrazol-5-yl)(4-(pyrazolo[1,5-a]pyridin-2-yl)-6,7-dihydro-1H-imidazo(4,5-c]pyridin-5(4H)-yl)methanone] reads 500 to 1000 nM.
